Patent publication US9867825B2, “Pharmaceutical combination comprising binimetinib” (Novartis AG, priority 2012, dated 2018)

How the values were obtained:
Hs 944.T xenografts = test: Compound A efficacy in Hs 944.T xenografts in nude mice; assay type: in vivo, mouse; conditions: for Change in body weight (%, mean ± SEM) / Change in tumor volume (mm^3, mean ± SEM) / Survival / T/C (%): oral
MEL-JUSO xenografts [1] = test: Compound A and Compound B efficacy in MEL-JUSO xenografts (NRAS mutant melanoma); assay type: in vivo; conditions: oral
From the text: The oncogenic drivers in a sizable fraction of melanomas are mutant alleles of NRAS that encode one of several variants at position Q61 in the protein. Similar to activated alleles of BRAF, these alleles encode constitutively activated forms of the protein that drive signaling through the MAPK pathway. One consequence of the activation of MAPK signaling is the elevation of cyclin D1 levels that help drive cell cycle progression. […] Based on these observations, the single agent and combination effects of Compound A, and the MEK1/2 inhibitor Compound B, on the in vivo proliferation of MEL-JUSO melanoma model, harboring mutant alleles of NRAS was studied. […] T/C % is defined as the mean change in tumor volume from the time of treatment initiation to the end of study. The % regression is calculated as 100×ΔT/Tinitial if ΔT<0. Complete regression is defined as non-palpable tumor.
All treatments were well-tolerated by the animals with no significant body weight loss observed over the duration of the study (Table 5).

[2] = tested on: SK-MEL2 melanoma cells with activated NRAS; test: BrdU uptake assay, SK-MEL2; assay type: cell-based; conditions: Homo sapiens, SK-MEL-2
Method: (§1) Three melanoma cell lines, MEL-JUSO, SK-MEL2 and Hs 944.T, which harbor the Q61X activating mutation of NRAS, were tested with Compound A and Compound B to measure their sensitivity to the inhibitors.

[3] = tested on: MEL-JUSO melanoma cells with activated NRAS; test: BrdU uptake assay, MEL-JUSO; assay type: cell-based; conditions: Homo sapiens
Method: as §1

[4] = tested on: Hs 944.T melanoma cells with activated NRAS; test: BrdU uptake assay, Hs 944.T; assay type: cell-based; conditions: Hs 944.T cells
Method: as §1

MEL-JUSO xenografts [5] = test: Compound A efficacy in MEL-JUSO xenografts in SCID-beige mice; assay type: in vivo; conditions: Compound A 150 mg/kg qd, oral

CN(C)C(=O)c1cc2cnc(Nc3ccc(N4CCNCC4)cn3)nc2n1C1CCCC1 [Compound A, 7-Cyclopentyl-2-(5-piperazin-1-yl-pyridin-2-ylamino)-7H-pyrrolo[2,3-d]pyrimidine-6-carboxylic acid dimethylamide]
Animals classified as TR deaths due to body weight loss criteria (Hs 944.T xenografts; Compound A 150 mg/kg qd): Three animals each from the 150 mg/kg and 250 mg/kg Compound A treatment groups were classified as TR deaths due to body weight loss criteria, and excluded from data analysis. | Change in body weight (%, mean ± SEM) (Hs 944.T xenografts; Compound A 150 mg/kg qd): −12.7 ± 2.1% | Change in tumor volume (mm^3, mean ± SEM) (Hs 944.T xenografts; Compound A 150 mg/kg qd): 86 ± 17 mm^3 | Survival (Hs 944.T xenografts; Compound A 150 mg/kg qd): 5/8 | T/C (%) (Hs 944.T xenografts; Compound A 150 mg/kg qd): 36% | Animals classified as TR deaths due to body weight loss criteria (Hs 944.T xenografts; Compound A 250 mg/kg qd): Three animals each from the 150 mg/kg and 250 mg/kg Compound A treatment groups were classified as TR deaths due to body weight loss criteria, and excluded from data analysis. | Change in body weight (%, mean ± SEM) (Hs 944.T xenografts; Compound A 250 mg/kg qd): −19.7 ± 0.6% | Change in tumor volume (mm^3, mean ± SEM) (Hs 944.T xenografts; Compound A 250 mg/kg qd): 45 ± 25 mm^3 | Survival (Hs 944.T xenografts; Compound A 250 mg/kg qd): 5/8 | T/C (%) (Hs 944.T xenografts; Compound A 250 mg/kg qd): 19% | Change in body weight (%, mean ± SEM) (MEL-JUSO xenografts [1]; Compound A 75 mg/kg qd): −3.9 ± 1.5% | Change in tumor volume (mm^3, mean ± SEM) (MEL-JUSO xenografts [1]; Compound A 75 mg/kg qd): 236 ± 32 mm^3 | Survival (MEL-JUSO xenografts [1]; Compound A 75 mg/kg qd): 6/6 | T/C (%) (MEL-JUSO xenografts [1]; Compound A 75 mg/kg qd): 47% | Change in body weight (%, mean ± SEM) (MEL-JUSO xenografts [1]; Compound A 150 mg/kg qd): −3.9 ± 2.1% | Change in tumor volume (mm^3, mean ± SEM) (MEL-JUSO xenografts [1]; Compound A 150 mg/kg qd): 157 ± 33 mm^3 | Survival (MEL-JUSO xenografts [1]; Compound A 150 mg/kg qd): 6/6 | T/C (%) (MEL-JUSO xenografts [1]; Compound A 150 mg/kg qd): 32% | Change in body weight (%, mean ± SEM) (MEL-JUSO xenografts [1]; Compound A 250 mg/kg qd): −2.7 ± 1.6% | Change in tumor volume (mm^3, mean ± SEM) (MEL-JUSO xenografts [1]; Compound A 250 mg/kg qd): 9 ± 11 mm^3 | Survival (MEL-JUSO xenografts [1]; Compound A 250 mg/kg qd): 6/6 | T/C (%) (MEL-JUSO xenografts [1]; Compound A 250 mg/kg qd): 2% | IC50 [2]: 750 nM | IC50 [3]: 360 nM | IC50 [4]: 3830 nM | Change in body weight (%, mean ± SEM) (MEL-JUSO xenografts [5]): −7.3 ± 1.2% | Change in tumor volume (mm^3, mean ± SEM) (MEL-JUSO xenografts [5]): −32 ± 14 mm^3 | Survival (MEL-JUSO xenografts [5]): 6/6

Cn1cnc2c(F)c(Nc3ccc(Br)cc3F)c(C(=O)NOCCO)cc21 [Compound B, 6-(4-bromo-2-fluorophenylamino)-7-fluoro-3-methyl-3H-benzoimidazole-5-carboxylic acid (2-hydroxyethyoxy)-amide]
Change in body weight (%, mean ± SEM) (MEL-JUSO xenografts [1]; Compound B 3.5 mg/kg bid): −0.3 ± 2.1% | Change in tumor volume (mm^3, mean ± SEM) (MEL-JUSO xenografts [1]; Compound B 3.5 mg/kg bid): 59 ± 24 mm^3 | Survival (MEL-JUSO xenografts [1]; Compound B 3.5 mg/kg bid): 6/6 | T/C (%) (MEL-JUSO xenografts [1]; Compound B 3.5 mg/kg bid): 12% | Change in body weight (%, mean ± SEM) (MEL-JUSO xenografts [1]; Compound B 10 mg/kg bid): 5.1 ± 1.1% | Change in tumor volume (mm^3, mean ± SEM) (MEL-JUSO xenografts [1]; Compound B 10 mg/kg bid): −47 ± 11 mm^3 | Regression (%) (MEL-JUSO xenografts [1]; Compound B 10 mg/kg bid): 38% | Survival (MEL-JUSO xenografts [1]; Compound B 10 mg/kg bid): 6/6 | IC50 [2]: 990 nM | IC50 [3]: 24 nM | IC50 [4]: 554 nM
